In US20210171948A1, “COMPOSITIONS AND METHODS FOR TARGETING GLYPICAN-2 IN THE TREATMENT OF CANCER” (Shepherd Therapeutics, Inc., priority 2019, published 2021):
pIC50: −log10 of the molar value. d = 2'-deoxy (DNA); r = 2'-OH (RNA)

Assays:
GPC2 mRNA [1] = assay: GPC2 mRNA knockdown in neuroblastoma cell lines (Example 4); format: cell-based, human; settings: for Degree of GPC2 knockdown among sequences 3, 5, 12-15: CHP212, SKNAS and SHSY5Y neuroblastoma cell lines, 96 hour incubation (FIG. 3A)
Protocol: GPC2 mRNA knockdown was assessed in multiple neuroblastoma cell lines. Cells were transfected with either a scrambled control siRNA, with GPC2 siRNA sequences 3 or 5 from Table 7, or with siRNA sequences generated by Dharmacon (sequences 12-15 from Table 7) using the RNAiMAX Lipofectamine kit (Invitrogen, Carlsbad, Calif.) as previously described. Following a 96 hour incubation period, total RNA samples were collected to compare knockdown efficiency and viability was measured in parallel plated cells.
The extent of GPC2 mRNA reduction was assessed with additional GPC2 siRNA sequences in the CHP212 neuroblastoma cell line. Cells were transfected with either a scrambled control siRNA or with GPC2 siRNA sequences 3 or 5, or with siRNA sequences 6-11 (Sigma) using the RNAiMAX Lipofectamine kit (Invitrogen, Carlsbad, Calif.) as previously described. Following a 96 hour incubation period, total RNA samples were collected and viability was measured in parallel plated cells.
The extent of GPC2 mRNA reduction (knockdown) and corresponding protein level expression changes were assessed in three neuroblastoma cell lines following siRNA knockdown of GPC2. The CHP212 neuroblastoma cell line (FIG. 5A and FIG. 5D), the SH-SY5Y neuroblastoma cell line (FIG. 5B and FIG. 5E) and the CHLA90 neuroblastoma cell line (FIG. 5C and FIG. 5F) were transfected with GPC2 siRNA sequences 5 and 7 from Table 7 and a scrambled control siRNA using the RNAiMAX Lipofectamine kit (Invitrogen, Carlsbad, Calif.) as previously described. Following a 24, 48, or 72 hour incubation period, cells were washed and total RNA was isolated for measuring GPC2 mRNA expression. For protein analysis, cells were fixed, immunostained using an antibody against GPC2 protein, protein expression was measured via flow cytometry. As shown, GPC2 mRNA knockdown was observed beginning at the 24 hr time point and lasted for at least 72 hours. GPC2 protein expression started to decrease at the 48 hr time point.

GPC2 mRNA [2] = assay: GPC2 mRNA knockdown in neuroblastoma cell lines, representative data from a separate experiment (Tables 10-14); format: cell-based, human; set-up: concentration or dose not given beside the values
CHLA-90 cells [3] = assay: Carboplatin IC50 in siRNA-transfected cells, Cell Titer Glo 2.0 viability (Example 6); format: cell-based; settings: for Data Summary: effect of knockdown on sensitivity to carboplatin: CHLA-90; for pIC50: CHLA-90 cells transfected with the labelled siRNA, carboplatin added 24 hours post transfection, 72 hour incubation
Protocol: (§1) GPC2 mRNA expression was reduced using the indicated siRNAs and changes in cell viability were assessed in multiple neuroblastoma cell lines. Cells were transfected with either a control siRNA or with GPC2 siRNA sequences 3, 5 or 7 from Table 7 using the RNAiMAX Lipofectamine kit (Invitrogen, Carlsbad, Calif.) as previously described in 96 wells for viability assays. Carboplatin was added at increasing concentrations (0 to 150 uM) to transfected cells at 24 hours post transfection. Following a 72 hour incubation period, viability measurements were made using Cell Titer Glo 2.0.

CHP212 cells [4] = assay: as above; format: cell-based; settings: for Data Summary: effect of knockdown on sensitivity to carboplatin: CHP212; for pIC50: CHP212 cells transfected with the labelled siRNA, carboplatin added 24 hours post transfection, 72 hour incubation
Protocol: as §1

SH-SY5Y cells [5] = assay: as above; format: cell-based; settings: for pIC50: SH-SY5Y cells transfected with the labelled siRNA, carboplatin added 24 hours post transfection, 72 hour incubation
Protocol: as §1

SK-N-BE2 cells [6] = assay: as above; format: cell-based; settings: for Data Summary: effect of knockdown on sensitivity to carboplatin: SK-N-BE2; for pIC50: SK-N-BE2 cells transfected with the labelled siRNA, carboplatin added 24 hours post transfection, 72 hour incubation
Protocol: as §1

CHLA-90 cells [7] = assay: Doxorubicin IC50 in siRNA-transfected cells, Cell Titer Glo viability (Example 8); format: cell-based; settings: for pIC50: CHLA-90 cells transfected with the labelled siRNA, doxorubicin added 24 hours post transfection, 72 hour incubation
Protocol: as §1, with “reduced” for “reduced using the indicated siRNAs”, “with GPC-2” for “with GPC2”, “assays. Doxorubicin” for “assays. Carboplatin”, “concentrations (0-5” for “concentrations (0 to 150”, “Titer Glo.” for “Titer Glo 2.0.”

CHP212 cells [8] = assay: as above; format: cell-based; settings: for Data Summary: effect of knockdown on sensitivity to doxorubicin: CHP212; for pIC50: CHP212 cells transfected with the labelled siRNA, doxorubicin added 24 hours post transfection, 72 hour incubation
Protocol: as §1, with “reduced” for “reduced using the indicated siRNAs”, “with GPC-2” for “with GPC2”, “assays. Doxorubicin” for “assays. Carboplatin”, “concentrations (0-5” for “concentrations (0 to 150”, “Titer Glo.” for “Titer Glo 2.0.”

SH-SY5Y cells [9] = assay: as above; format: cell-based; settings: SH-SY5Y cells transfected with the labelled siRNA; doxorubicin added 24 hours post transfection, 72 hour incubation
Protocol: as §1, with “reduced” for “reduced using the indicated siRNAs”, “with GPC-2” for “with GPC2”, “assays. Doxorubicin” for “assays. Carboplatin”, “concentrations (0-5” for “concentrations (0 to 150”, “Titer Glo.” for “Titer Glo 2.0.”

SK-N-BE2 cells [10] = assay: as above; format: cell-based; settings: for pIC50: SK-N-BE2 cells transfected with the labelled siRNA, doxorubicin added 24 hours post transfection, 72 hour incubation
Protocol: as §1, with “reduced” for “reduced using the indicated siRNAs”, “with GPC-2” for “with GPC2”, “assays. Doxorubicin” for “assays. Carboplatin”, “concentrations (0-5” for “concentrations (0 to 150”, “Titer Glo.” for “Titer Glo 2.0.”

CHLA-90 cells [11] = assay: Etoposide IC50 in siRNA-transfected cells, Cell Titer Glo 2.0 viability (Example 9); format: cell-based; settings: for pIC50: CHLA-90 cells transfected with the labelled siRNA, etoposide added 24 hours post transfection, 72 hour incubation
Protocol: as §1, with “reduced” for “reduced using the indicated siRNAs”, “Etoposide” for “Carboplatin”, “(0-15” for “(0 to 150”, “measurement” for “measurements”

CHP212 cells [12] = assay: as above; format: cell-based; settings: for pIC50: CHP212 cells transfected with the labelled siRNA, etoposide added 24 hours post transfection, 72 hour incubation
Protocol: as §1, with “reduced” for “reduced using the indicated siRNAs”, “Etoposide” for “Carboplatin”, “(0-15” for “(0 to 150”, “measurement” for “measurements”

SH-SY5Y cells [13] = assay: as above; format: cell-based; settings: for Data Summary: effect of knockdown on sensitivity to etoposide: SH-SY5Y; for pIC50: SH-SY5Y cells transfected with the labelled siRNA, etoposide added 24 hours post transfection, 72 hour incubation
Protocol: as §1, with “reduced” for “reduced using the indicated siRNAs”, “Etoposide” for “Carboplatin”, “(0-15” for “(0 to 150”, “measurement” for “measurements”

SK-N-BE2 cells [14] = assay: as above; format: cell-based; settings: for Data Summary: effect of knockdown on sensitivity to etoposide: SK-N-BE2; for pIC50: SK-N-BE2 cells transfected with the labelled siRNA, etoposide added 24 hours post transfection, 72 hour incubation
Protocol: as §1, with “reduced” for “reduced using the indicated siRNAs”, “Etoposide” for “Carboplatin”, “(0-15” for “(0 to 150”, “measurement” for “measurements”

[15] = CHLA-90, compared to scrambled siRNA control
[16] = CHLA-136, compared to scrambled siRNA control
[17] = CHLA-172, compared to scrambled siRNA control
[18] = CHP212, compared to scrambled siRNA control
[19] = KELLY, compared to scrambled siRNA control
[20] = SH-SY5Y, compared to scrambled siRNA control
[21] = SK-N-BE2, compared to scrambled siRNA control
[22] = SKNAS, compared to scrambled siRNA control

Substance | Degree of GPC2 knockdown among sequences 3, 5, 12-15 (GPC2 mRNA [1]) | % KD; percent GPC2 mRNA reduction (knockdown) (GPC2 mRNA [2]; [15]) [%] | % KD; percent GPC2 mRNA reduction (knockdown) (GPC2 mRNA [2]; [16]) [%] | % KD; percent GPC2 mRNA reduction (knockdown) (GPC2 mRNA [2]; [17]) [%] | % KD; percent GPC2 mRNA reduction (knockdown) (GPC2 mRNA [2]; [18]) [%] | % KD; percent GPC2 mRNA reduction (knockdown) (GPC2 mRNA [2]; [19]) [%] | % KD; percent GPC2 mRNA reduction (knockdown) (GPC2 mRNA [2]; [20]) [%] | % KD; percent GPC2 mRNA reduction (knockdown) (GPC2 mRNA [2]; [21]) [%] | % KD; percent GPC2 mRNA reduction (knockdown) (GPC2 mRNA [2]; [22]) [%] | Data Summary: effect of knockdown on sensitivity to carboplatin (CHLA-90 cells [3]) | pIC50 (CHLA-90 cells [3]) | Data Summary: effect of knockdown on sensitivity to carboplatin (CHP212 cells [4]) | pIC50 (CHP212 cells [4]) | pIC50 (SH-SY5Y cells [5]) | Data Summary: effect of knockdown on sensitivity to carboplatin (SK-N-BE2 cells [6]) | pIC50 (SK-N-BE2 cells [6]) | pIC50 (CHLA-90 cells [7]) | Data Summary: effect of knockdown on sensitivity to doxorubicin (CHP212 cells [8]) | pIC50 (CHP212 cells [8]) | pIC50 (SH-SY5Y cells [9]) | further results
GPC2 siRNA 3: siRNA duplex: sense CCUGCUUGGACCUCGAUAA[dT][dT] (SEQ ID NO: 207), anti-sense UUAUCGAGGUCCAAGCAGG[dT][dT] (SEQ ID NO: 208) (sense CCUGCUUGGACCUCGAUAANN; antisense UUAUCGAGGUCCAAGCAGGNN; 3' dTdT overhangs, chemistry not fully specified; listed as Homo sapiens) | greater | 50 | 25 | 5 | 60 | 65 | 55 | 55 | 40 | increases sensitivity to | 4.00 | increases sensitivity to | 4.70 | 5.64 | increases sensitivity to | 4.55 | 6.46 | does not increase sensitivity | 7.52 | 7.10 | pIC50 (SK-N-BE2 cells [10]): 6.00; pIC50 (CHLA-90 cells [11]): 6.46; pIC50 (CHP212 cells [12]): 7.52; Data Summary: effect of knockdown on sensitivity to etoposide (SH-SY5Y cells [13]): 7 increases sensitivity to etoposide; pIC50 (SH-SY5Y cells [13]): 7.10; Data Summary: effect of knockdown on sensitivity to etoposide (SK-N-BE2 cells [14]): 7 increases sensitivity to etoposide; pIC50 (SK-N-BE2 cells [14]): 6.00
GPC2 siRNA 5: siRNA duplex: sense CUCAGUAGCCCAGCACUCU[dT][dT] (SEQ ID NO: 211), anti-sense AGAGUGCUGGGCUACUGAG[dT][dT] (SEQ ID NO: 212) (sense CUCAGUAGCCCAGCACUCUTT; antisense AGAGUGCUGGGCUACUGAGTT; sugars from the 5' end r19 d2, backbone not given here; listed as Homo sapiens) | greater | 55 | 35 | 8 | 70 | 75 | 75 | 68 | 70 | increases sensitivity to | 4.00 | increases sensitivity to | 4.98 | 5.81 | increases sensitivity to | 4.96 | 6.60 | does not increase sensitivity | 7.70 | 7.30 | Time for which reduced GPC2 mRNA expression was sustained (GPC2 mRNA [1]; CHLA90 neuroblastoma cells (FIG. 5C)): 72 h; Time point at which GPC2 mRNA knockdown was first observed (GPC2 mRNA [1]; CHP212, SH-SY5Y and CHLA90 neuroblastoma cell lines): 24 h; Degree of GPC2 knockdown among sequences 3, 5, 6-11 (GPC2 mRNA [1]; CHP212 neuroblastoma cell line, 96 hour incubation (FIG. 4A)): greater; Time for which reduced GPC2 mRNA expression was sustained (GPC2 mRNA [1]; CHP212 neuroblastoma cells (FIG. 5A)): 72 h; Time for which reduced GPC2 mRNA expression was sustained (GPC2 mRNA [1]; SH-SY5Y neuroblastoma cells (FIG. 5B)): 72 h; Data Summary: effect of knockdown on sensitivity to carboplatin (SH-SY5Y cells [5]; SH-SY5Y): increases sensitivity to; Data Summary: effect of knockdown on sensitivity to doxorubicin (CHLA-90 cells [7]; CHLA-90): increases sensitivity to; Data Summary: effect of knockdown on sensitivity to doxorubicin (SK-N-BE2 cells [10]; SK-N-BE2): increases sensitivity to; pIC50 (SK-N-BE2 cells [10]): 7.70; Data Summary: effect of knockdown on sensitivity to etoposide (CHLA-90 cells [11]; CHLA-90): increases sensitivity to etoposide; pIC50 (CHLA-90 cells [11]): 6.60; Data Summary: effect of knockdown on sensitivity to etoposide (CHP212 cells [12]; CHP212): increases sensitivity to etoposide; pIC50 (CHP212 cells [12]): 7.70; Data Summary: effect of knockdown on sensitivity to etoposide (SH-SY5Y cells [13]): 7 increases sensitivity to etoposide; pIC50 (SH-SY5Y cells [13]): 7.30; Data Summary: effect of knockdown on sensitivity to etoposide (SK-N-BE2 cells [14]): 7 increases sensitivity to etoposide; pIC50 (SK-N-BE2 cells [14]): 7.70
